# Data taken from EP2719696A1, “NOVEL KINASE INHIBITORS” (Asinex Limited, priority 2011, dated 2012).
# What was measured:
# [1] = target: PDGFR-α (Homo sapiens, UniProt P16234); assay: Kinase inhibition assay (ELISA); assay type: biochemical; conditions: 1 µM ATP
# Protocol: (§1) To determine the interaction of our compounds with tyrosine kinases: PDGFR-α, cKIT, PDGFR-β, VEGFR-2 we used enzyme-linked immunosorbent assay (ELISA).
# (§2) Determination plates preparation: The plates are processed by neutravidine for 2 h at 30°C. After washing thrice with TBS/0.1% Tween-20 and blocking with 1% BSA/TBS for 1 h at room temperature (RT) 96-well microtiter plates were washed thrice with TBS/0.1% Tween-20 again.
# (§3) Reaction: After addition test compounds (in DMSO, DMSO final concentration - 5%) to reaction buffer (20 mM HEPES, pH 7.5, 15 mM MgCl2, 3 mM MnCl2, 2 mM DTT, 0.2 mM Na3VO4, 0.005% Triton X-100; PDGFR-α,: 0.05 µg/ml, 0.5 µg/ml Poly(G,T)-biotin; PDGFR-β: 0.05 µg/ml, 1 µg/ml Poly(G,T)-biotin; c-KIT: 0.03 µg/ml, 0.15 µg/ml Poly(G,T)-biotin; VEGFR-2: 0.07 µg/ml, 0.05 µg/ml Poly(G,T)-biotin) and preincubation of reaction for 10 min at RT and intensive agitation, ATP solution (PDGFR-α, - 1 µM, PDGFR-β - 0.5 µM, c-KIT - 60 µM, VEGFR-2: - 1.5 µM ATP in reaction buffer per well) was added to initiate reaction. Following incubation of mixture for 1 h at 30°C and intensive agitation the reaction was stopped by stop solution (20 mM HEPES, pH 7.5, 50 mM EDTA).
# (§4) Kinase activity determination: The reaction mixture was transferred to determination plate. After mix incubation for 1 h at RT and intensive agitation the plates were washed thrice with TBS/0.1% Tween-20. Following mouse monoclonal 0.05 µg/ml Anti-p-Tyr (PY20) HRP antibodies (Santa Cruz Biotechnology) in PBS/BSA were added for 1 h at RT and intensive agitation. After washing, antibody binding was detected by tetramethylbenzidine (TMB) color development (Sigma). Measurement of A450 nm was carried out after addition of H2SO4
# [2] = target: VEGFR-2 (Homo sapiens, UniProt P35968); assay: Kinase inhibition assay (ELISA); assay type: biochemical; conditions: 1.5 µM ATP
# Protocol: as §1, §2, §3, §4
# [3] = target: cKIT (Homo sapiens, UniProt P10721); assay: Kinase inhibition assay (ELISA); assay type: biochemical; conditions: 60 µM ATP
# Protocol: as §1, §2, §3, §4
# [4] = test system: A172; assay: MTT proliferation / cytotoxicity assay; assay type: cell-based, human; conditions: Homo sapiens, A 172, 72 h, glioblastoma cell line
# Protocol: (§5) Cell culture. The human cancer cell lines A172, A375, A2780 and U251 were purchased from the American Type Culture Collection. All cells were routinely maintained in DMEM containing 10% fetal bovine serum (Omega Scientific), at 37°C in 5% C02.
# (§6) Proliferation assay Inhibition of cell A172, A375, A2780 and U251 cell proliferation was assessed by a MTT assay (MTT = Thiazolyl Blue Tetrazolium Bromide) . Cells were inoculated into 96-well microtiter plates containing 0.5% fetal calf serum and incubated at 37°C, 5% CO2, 95% air, and 100% relative humidity for 24 h prior to addition of testing compounds. Following compounds addition, the plates were incubated for an additional 72 h before processing to measure the cell population. Each compound was tested at eight different concentrations in triplicate, as was a control sample. Growth inhibition of 50% (IC50) is calculated by analysis of the data in Prizm3.4 software.
# (§7) Table 8 lists IC50 values for inhibition of growth of several cancer cell lines, including the glioblastoma cell lines A172 and U251, measured in a MTT cytotoxicity assay. Table 8. Data of cytotoxicity assay (MTT) for several cancer cell lines, IC50 [µM]
# [5] = test system: A2780; assay: MTT proliferation / cytotoxicity assay; assay type: cell-based, human; conditions: Homo sapiens, A2780, 72 h
# Protocol: as §5, §6, §7
# Chain of VEGFR-2 (P35968 20-1356, species assumed): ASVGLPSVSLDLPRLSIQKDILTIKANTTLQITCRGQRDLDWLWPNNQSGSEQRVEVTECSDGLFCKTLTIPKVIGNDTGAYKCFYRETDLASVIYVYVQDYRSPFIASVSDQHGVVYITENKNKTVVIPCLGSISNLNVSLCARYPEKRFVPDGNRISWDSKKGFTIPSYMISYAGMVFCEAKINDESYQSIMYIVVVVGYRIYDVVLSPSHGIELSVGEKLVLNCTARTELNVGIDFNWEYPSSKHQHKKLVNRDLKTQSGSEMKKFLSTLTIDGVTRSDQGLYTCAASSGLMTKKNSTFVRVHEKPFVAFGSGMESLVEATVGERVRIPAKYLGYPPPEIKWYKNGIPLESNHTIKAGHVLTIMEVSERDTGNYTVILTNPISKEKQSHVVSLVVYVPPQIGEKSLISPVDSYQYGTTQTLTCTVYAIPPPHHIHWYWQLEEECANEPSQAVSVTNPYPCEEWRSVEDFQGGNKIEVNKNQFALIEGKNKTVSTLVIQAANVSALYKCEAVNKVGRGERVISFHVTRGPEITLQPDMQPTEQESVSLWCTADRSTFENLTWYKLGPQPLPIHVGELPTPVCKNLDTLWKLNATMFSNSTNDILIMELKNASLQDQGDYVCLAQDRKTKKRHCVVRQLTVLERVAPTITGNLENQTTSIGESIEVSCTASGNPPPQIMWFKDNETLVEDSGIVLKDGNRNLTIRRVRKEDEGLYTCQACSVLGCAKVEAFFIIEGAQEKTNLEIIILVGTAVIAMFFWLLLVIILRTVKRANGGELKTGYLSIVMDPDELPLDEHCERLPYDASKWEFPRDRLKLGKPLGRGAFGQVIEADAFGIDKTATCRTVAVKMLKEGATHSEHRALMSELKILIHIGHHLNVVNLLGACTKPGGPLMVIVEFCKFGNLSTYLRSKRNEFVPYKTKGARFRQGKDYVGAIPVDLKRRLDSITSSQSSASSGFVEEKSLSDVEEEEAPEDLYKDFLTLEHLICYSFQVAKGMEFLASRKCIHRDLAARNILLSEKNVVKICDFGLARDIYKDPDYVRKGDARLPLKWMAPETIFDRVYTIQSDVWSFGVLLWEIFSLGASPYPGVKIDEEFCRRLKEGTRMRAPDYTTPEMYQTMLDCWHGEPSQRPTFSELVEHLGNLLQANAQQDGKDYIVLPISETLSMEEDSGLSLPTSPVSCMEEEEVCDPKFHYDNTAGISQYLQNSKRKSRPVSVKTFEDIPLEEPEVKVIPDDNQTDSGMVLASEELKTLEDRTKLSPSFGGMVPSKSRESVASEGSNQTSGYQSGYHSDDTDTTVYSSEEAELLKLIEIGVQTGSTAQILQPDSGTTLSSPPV
# Chain of PDGFR-α (P16234 24-1089, species assumed): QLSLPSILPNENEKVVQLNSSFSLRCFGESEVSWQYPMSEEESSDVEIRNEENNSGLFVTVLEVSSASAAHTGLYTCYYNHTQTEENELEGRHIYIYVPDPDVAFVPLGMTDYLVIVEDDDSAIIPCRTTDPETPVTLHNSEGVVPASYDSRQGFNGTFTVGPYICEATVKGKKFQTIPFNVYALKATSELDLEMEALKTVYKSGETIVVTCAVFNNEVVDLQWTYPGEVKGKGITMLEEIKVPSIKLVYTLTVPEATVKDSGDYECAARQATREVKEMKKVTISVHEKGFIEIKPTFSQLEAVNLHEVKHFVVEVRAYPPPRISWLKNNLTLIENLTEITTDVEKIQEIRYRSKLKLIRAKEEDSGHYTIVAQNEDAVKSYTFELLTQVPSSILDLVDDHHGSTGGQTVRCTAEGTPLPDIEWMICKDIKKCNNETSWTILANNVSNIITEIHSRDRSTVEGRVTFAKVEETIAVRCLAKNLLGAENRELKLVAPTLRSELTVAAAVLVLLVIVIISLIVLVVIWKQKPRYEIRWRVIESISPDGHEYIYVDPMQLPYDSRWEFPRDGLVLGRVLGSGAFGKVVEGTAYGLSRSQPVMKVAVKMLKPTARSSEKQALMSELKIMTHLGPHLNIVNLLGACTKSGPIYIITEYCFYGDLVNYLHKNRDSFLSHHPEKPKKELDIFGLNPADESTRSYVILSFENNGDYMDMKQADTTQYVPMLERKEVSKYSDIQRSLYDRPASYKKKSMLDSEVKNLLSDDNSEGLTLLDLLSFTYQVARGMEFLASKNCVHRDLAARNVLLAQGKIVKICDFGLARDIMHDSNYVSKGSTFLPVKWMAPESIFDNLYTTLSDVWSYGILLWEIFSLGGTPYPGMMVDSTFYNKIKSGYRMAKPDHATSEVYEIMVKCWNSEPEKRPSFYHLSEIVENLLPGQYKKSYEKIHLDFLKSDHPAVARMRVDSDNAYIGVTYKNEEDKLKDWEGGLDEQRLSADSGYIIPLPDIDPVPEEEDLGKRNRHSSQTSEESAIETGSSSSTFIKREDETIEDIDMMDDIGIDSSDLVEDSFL
# Chain of cKIT (P10721 26-976): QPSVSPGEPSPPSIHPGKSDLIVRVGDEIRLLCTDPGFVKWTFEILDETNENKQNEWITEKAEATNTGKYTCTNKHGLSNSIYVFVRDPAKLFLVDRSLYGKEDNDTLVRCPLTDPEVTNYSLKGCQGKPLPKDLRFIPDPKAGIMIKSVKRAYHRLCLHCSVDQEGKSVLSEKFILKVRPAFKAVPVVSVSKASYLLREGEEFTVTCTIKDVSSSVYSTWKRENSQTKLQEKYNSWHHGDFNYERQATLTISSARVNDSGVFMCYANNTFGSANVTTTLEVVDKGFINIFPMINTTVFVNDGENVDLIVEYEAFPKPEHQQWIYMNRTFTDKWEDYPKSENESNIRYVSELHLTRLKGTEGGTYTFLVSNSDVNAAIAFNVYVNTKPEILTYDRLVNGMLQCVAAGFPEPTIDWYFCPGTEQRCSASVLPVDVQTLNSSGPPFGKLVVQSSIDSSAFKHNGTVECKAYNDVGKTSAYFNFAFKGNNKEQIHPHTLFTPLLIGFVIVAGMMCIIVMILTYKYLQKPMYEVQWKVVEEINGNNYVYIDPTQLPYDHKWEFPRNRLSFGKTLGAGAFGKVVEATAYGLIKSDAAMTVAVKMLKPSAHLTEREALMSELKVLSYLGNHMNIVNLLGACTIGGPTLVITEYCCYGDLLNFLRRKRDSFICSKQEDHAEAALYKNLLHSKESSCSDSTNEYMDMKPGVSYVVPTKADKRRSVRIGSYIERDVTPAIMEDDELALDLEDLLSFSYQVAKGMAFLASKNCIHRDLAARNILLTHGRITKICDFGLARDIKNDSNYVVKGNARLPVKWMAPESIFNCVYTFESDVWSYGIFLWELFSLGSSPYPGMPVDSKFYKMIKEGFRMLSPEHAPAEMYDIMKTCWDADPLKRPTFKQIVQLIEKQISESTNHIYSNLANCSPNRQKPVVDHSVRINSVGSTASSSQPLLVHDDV
Compound,IC50 [1] [nM],IC50 [2] [nM],IC50 [3] [nM],IC50 [4] [µM],IC50 [5] [µM]
"c1ccc(-c2cnc(Nc3cc(CC4CCNC4)ccn3)s2)cc1 (centres unmarked) [Example 014, (5-Phenyl-thiazol-2-yl)-(4-pyrrolidin-3-ylmethyl-pyridin-2-yl)-amine]",< 10,> 10,> 10,–,–
"CNC1CCC(Cc2ccnc(Nc3ncc(-c4ccc(F)cc4)s3)c2)CC1 (centres unmarked) [Example 016, [5-(4-Fluoro-phenyl)-thiazol-2-yl]-[4-(4-methylamino-cyclohexylmethyl)-pyridin-2-yl]-amine]",< 10,> 10,< 10,> 1,> 1
"Fc1ccc(-c2cnc(Nc3cc(CC4CCC5CNCC54)ccn3)s2)cc1 (centres unmarked) [Example 018, [5-(4-Fluoro-phenyl)-thiazol-2-yl]-[4-(octahydro-cyclopenta[c]pyrrol-4-ylmethyl)-pyridin-2-yl]-amine]",< 10,> 10,< 10,> 1,> 1
"Fc1ccc(-c2cnc(Nc3cccc(CC4CCC5CNCC54)n3)s2)cc1 (centres unmarked) [Example 020, [5-(4-Fluoro-phenyl)-thiazol-2-yl]-[6-(octahydro-cyclopenta[c]pyrrol-4-ylmethyl)-pyridin-2-yl]-amine]",< 10,> 100,< 10,≤ 1,< 1
"Fc1ccc(-c2cnc(Nc3cccc(CC4COC5(CCNCC5)C4)n3)s2)cc1 (centres unmarked) [Example 024, [5-(4-Fluoro-phenyl)-thiazol-2-yl]-[6-(1-oxa-8-aza-spiro[4.5]dec-3-ylmethyl)-pyridin-2-yl]-amine]",< 10,> 10,> 10,≤ 1,≤ 1
"c1ccc(-c2cnc(Nc3cc(C4CCCN4)ccn3)s2)cc1 (centres unmarked) [Example 027, (5-Phenyl-thiazol-2-yl)-(4-pyrrolidin-2-yl-pyridin-2-yl)-amine]",< 10,> 10,> 10,–,–
"OCCN1CCC(c2cncc(Nc3ncc(-c4ccccc4)s3)n2)CC1 [Example 030, 2-{4-[6-(5-Phenyl-thiazol-2-ylamino)-pyrazin-2-yl]-piperidin-1-yl}-ethanol]",> 10,> 100,> 100,–,–
"OCCN1CCC(CO)(c2cccc(Nc3ncc(-c4ccccc4)s3)n2)CC1 [Example 042, 2-[4'-Hydroxymethyl-6-(5-phenyl-thiazol-2-ylamino)-3',4',5',6'-tetrahydro-2'H-[2,4']bipyridinyl-1'-yl]-ethanol]",> 100,> 10000,> 100,–,–
"CN(C)CC1(c2cccc(Nc3ncc(-c4ccccc4)s3)n2)CCN(CCO)CC1 [Example 043, 2-[4'-Dimethylaminomethyl-6-(5-phenyl-thiazol-2-ylamino)-3',4',5',6'-tetrahydro-2'H-[2,4']bipyridinyl-1'-yl]-ethanol]",> 1000,> 10000,> 10000,–,–
"CC(C)(C)OC(=O)N1CCC(c2cccc(Nc3ncc(C#CC4CC4)s3)n2)CC1 [Example 045, 6-(5-Cyclopro-pylethynyl-thiazol-2-ylamino)-3',4',5',6'-tetrahydro-2'H-[2,4']bipyridinyl-1'-carboxylic acid tert-butyl ester]",> 10000,> 10,> 10000,–,–
"OCCN1CCC(c2cccc(Nc3ncc(-c4ccnc(Cl)c4)s3)n2)CC1 [Example 046, 2-{6-[5-(2-Chloro-pyridin-4-yl)-thiazol-2-ylamino]-3',4',5',6'-tetrahydro-2'H-[2,4']bipyridinyl-1'-yl}-ethanol]",< 10,> 100,> 10,–,–
"OCCN1CCC(c2ccnc(Nc3ncc(/C=C/c4ccccc4)s3)c2)CC1 [Example 048, 2-{2'-[5-((E)-Styryl)-thiazol-2-ylamino]-3,4,5,6-tetrahydro-2H-[4,4']bipyridinyl-1-yl}-ethanol]",> 10,> 100,> 1000,–,–
